In the supplement of paper PMC10307832:

How the values were obtained:
Assay in all cases: relative viability (nuclei count vs DMSO), 5 days (fraction); higher = more cells survive
201T = test system: 201T
Method in brief: (§1)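 Relative viability was taken as the ratio of nuclei in treated wells to nuclei in vehicle wells. Lung cancer cell lines in 1536-well plates received compounds by pin tool one day after seeding, either one drug alone or a fixed anchor-drug dose plus five library-drug doses (not always all listed) in √10 steps. Nuclei were counted on 4× images after 5 days of treatment, and values are medians of duplicate plates.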

BEN = test system: BEN
Method in brief: as §1

CAL-12T = test system: CAL-12T
Method in brief: as §1

HCC-44 = test system: HCC-44
Method in brief: as §1

HCC-827 = test system: HCC-827
Method in brief: as §1

HOP-62 = test system: HOP-62
Method in brief: as §1

LCLC-103H = test system: LCLC-103H
Method in brief: as §1

LCLC-97TM1 = test system: LCLC-97TM1
Method in brief: as §1

LXF-289 = test system: LXF-289
Method in brief: as §1

NCI-H1355 = test system: NCI-H1355
Method in brief: as §1

NCI-H1395 = test system: NCI-H1395
Method in brief: as §1

NCI-H1437 = test system: NCI-H1437
Method in brief: as §1

NCI-H1650 = test system: NCI-H1650
Method in brief: as §1

NCI-H1793 = test system: NCI-H1793
Method in brief: as §1

NCI-H2023 = test system: NCI-H2023
Method in brief: as §1

NCI-H2087 = test system: NCI-H2087
Method in brief: as §1

NCI-H2228 = test system: NCI-H2228
Method in brief: as §1

NCI-H2405 = test system: NCI-H2405
Method in brief: as §1

NCI-H3122 = test system: NCI-H3122
Method in brief: as §1

NCI-H322M = test system: NCI-H322M
Method in brief: as §1

NCI-H647 = test system: NCI-H647
Method in brief: as §1

RERF-LC-KJ = test system: RERF-LC-KJ
Method in brief: as §1

SK-LU-1 = test system: SK-LU-1
Method in brief: as §1

## CC(C)Oc1cc(Nc2nc(N[C@@H](C)c3ccc(F)cn3)ncc2Cl)n[nH]1 [AZ23] + Nc1nc2[nH]cc(CCc3ccc(C(=O)N[C@@H](CCC(=O)O)C(=O)O)cc3)c2c(=O)[nH]1 [Pemetrexed] (partner 0.2 µM)
201T; first compound 0.01 µM
  relative viability: 0.251
201T; first compound 0.03162 µM
  relative viability: 0.348
201T; first compound 0.3162 µM
  relative viability: 0.336
BEN; first compound 0.01 µM
  relative viability: 0.634
BEN; first compound 0.03162 µM
  relative viability: 0.892
BEN; first compound 0.3162 µM
  relative viability: 0.732
CAL-12T; first compound 0.03162 µM
  relative viability: 1.24
CAL-12T; first compound 0.3162 µM
  relative viability: 1.23
HCC-44; first compound 0.01 µM
  relative viability: 0.373
HCC-44; first compound 0.03162 µM
  relative viability: 0.66
HCC-44; first compound 0.3162 µM
  relative viability: 0.698
HCC-827; first compound 0.01 µM
  relative viability: 0.2
HCC-827; first compound 0.03162 µM
  relative viability: 0.27
HCC-827; first compound 0.3162 µM
  relative viability: 0.242
HOP-62; first compound 0.01 µM
  relative viability: 0.287
HOP-62; first compound 0.03162 µM
  relative viability: 0.359
HOP-62; first compound 0.3162 µM
  relative viability: 0.359
LCLC-103H; first compound 0.01 µM
  relative viability: 0.448
LCLC-103H; first compound 0.03162 µM
  relative viability: 0.433
LCLC-103H; first compound 0.3162 µM
  relative viability: 0.466
LCLC-97TM1; first compound 0.01 µM
  relative viability: 0.138
LCLC-97TM1; first compound 0.03162 µM
  relative viability: 0.193
LCLC-97TM1; first compound 0.3162 µM
  relative viability: 0.166
LXF-289; first compound 0.01 µM
  relative viability: 1.02
LXF-289; first compound 0.03162 µM
  relative viability: 0.974
LXF-289; first compound 0.3162 µM
  relative viability: 0.99
NCI-H1355; first compound 0.01 µM
  relative viability: 1.13
NCI-H1355; first compound 0.03162 µM
  relative viability: 1.11
NCI-H1355; first compound 0.3162 µM
  relative viability: 1.05
NCI-H1395; first compound 0.03162 µM
  relative viability: 0.97
NCI-H1395; first compound 0.3162 µM
  relative viability: 0.929
NCI-H1437; first compound 0.01 µM
  relative viability: 0.283
NCI-H1437; first compound 0.03162 µM
  relative viability: 0.345
NCI-H1437; first compound 0.3162 µM
  relative viability: 0.331
NCI-H1650; first compound 0.01 µM
  relative viability: 0.295
NCI-H1650; first compound 0.03162 µM
  relative viability: 0.406
NCI-H1650; first compound 0.3162 µM
  relative viability: 0.359
NCI-H1793; first compound 0.01 µM
  relative viability: 0.986
NCI-H1793; first compound 0.03162 µM
  relative viability: 0.92
NCI-H1793; first compound 0.3162 µM
  relative viability: 0.979
NCI-H2023; first compound 0.03162 µM
  relative viability: 0.268
NCI-H2023; first compound 0.3162 µM
  relative viability: 0.219
NCI-H2087; first compound 0.01 µM
  relative viability: 0.727
NCI-H2087; first compound 0.03162 µM
  relative viability: 0.691
NCI-H2087; first compound 0.3162 µM
  relative viability: 0.766
NCI-H2228; first compound 0.01 µM
  relative viability: 0.301
NCI-H2228; first compound 0.03162 µM
  relative viability: 0.407
NCI-H2228; first compound 0.3162 µM
  relative viability: 0.354
NCI-H2405; first compound 0.01 µM
  relative viability: 1.02
NCI-H2405; first compound 0.03162 µM
  relative viability: 1.04
NCI-H2405; first compound 0.3162 µM
  relative viability: 0.879
NCI-H3122; first compound 0.01 µM
  relative viability: 0.151
NCI-H3122; first compound 0.03162 µM
  relative viability: 0.199
NCI-H3122; first compound 0.3162 µM
  relative viability: 0.195
NCI-H322M; first compound 0.01 µM
  relative viability: 0.536
NCI-H322M; first compound 0.03162 µM
  relative viability: 0.617
NCI-H322M; first compound 0.3162 µM
  relative viability: 0.689
NCI-H647; first compound 0.01 µM
  relative viability: 0.151
NCI-H647; first compound 0.03162 µM
  relative viability: 0.192
NCI-H647; first compound 0.3162 µM
  relative viability: 0.182
RERF-LC-KJ; first compound 0.01 µM
  relative viability: 0.493
RERF-LC-KJ; first compound 0.03162 µM
  relative viability: 0.463
RERF-LC-KJ; first compound 0.3162 µM
  relative viability: 0.495
SK-LU-1; first compound 0.03162 µM
  relative viability: 1.13
SK-LU-1; first compound 0.3162 µM
  relative viability: 1.06
